# Data from ChEMBL document CHEMBL1145923, “Synthesis and biological evaluation of 4-arylcoumarin analogues of combretastatins” (J Med Chem, 2003).
# Test system: CCRF-CEM
# Test: Inhibitory activity against CEM human leukemia cell line
# Assay type: functional, cell-based
smiles,measurement,value
COc1cc2oc(=O)cc(-c3ccc4c(c3)OCO4)c2c(OC)c1OC,IC50,> 50 µM
